Results as given in patent publication US11674967B2, “Method of identifying potential inhibitors of APO TNFα trimers” (UCB BIOPHARMA SRL, priority 2015, dated 2023).

Experiments:
[1] = biological target: T1, human TNFα trimer (Homo sapiens, UniProt P01375); assay: RMSD of crystal structure of compound-bound TNFα trimer to Reference Structure Compound 34; conditions: Cα atoms of β-sheet residues, all three subunits, PyMOL
T1 construct: His6Smt-tag (N, cleaved yes); made in house; host or cells: E. coli (vector pEMB54)
T1 sequence (P01375 with tags, fused parts or gaps): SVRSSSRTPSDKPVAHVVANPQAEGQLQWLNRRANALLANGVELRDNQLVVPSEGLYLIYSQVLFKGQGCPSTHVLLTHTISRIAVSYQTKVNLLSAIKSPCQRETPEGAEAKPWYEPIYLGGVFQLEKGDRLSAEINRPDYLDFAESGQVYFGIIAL
Method: Cells were pre-cultured at 37° C. in rich media, induced with the addition of 0.1% arabinose and allowed to express overnight at 25° C. in vector pEMB54. This vector introduces a cleavable N-terminal His6Smt-tag. The cells were lysed and purified by Ni-NTA chelate chromatography. The fusion protein was eluted with buffer containing imidazole and cleaved by the addition of protease. The final cleaved TNFα protein was purified by a subtractive Ni chelate chromatography step to remove the fusion tag and further purified by size exclusion chromatography to remove the remaining impurities. The final TNFα product was typically concentrated to 20.0 mg/ml and flash frozen in liquid nitrogen.
Purified human TNF[…] (20.0 mg/ml, VC 2043) was diluted to 4-7 mg/ml in 10 mM HEPES pH 7.5, 150 mM NaCl buffer followed by overnight incubation at 4° C. with 0.3-0.5 mM compound (1-2 molar excess). The TNF[…] compound complexes were crystallized by sitting drop vapor diffusion by mixing 0.5 μl of complex with 0.5 μl of 21.44% PEG 3350, 100 mM Tris, pH 9.0 (UCB1474433); or 22.0% PEG 3350, 100 mM glycine, 100 mM Tris, pH 8.5 (UCB1480595); or 25.6% PEG 3350, 100 mM Tris, pH 8.3, 3% xylitol (UCB5143079) or other formulation with varying precipitant concentration or additives over 100 μl of the same crystallization solution. Other formulations for other compounds include a range of PEG 3350 of 8-28%. Other PEG-like additives include PEG 1000 (8-18%) or PEG 2000 (10-13%). Other additives include MPD (5-13%) or 200 mM NaCl. Other buffers include 100 mM Hepes (pH 7-8), 100 mM Tris or bis-Tris (pH 6.7-9.0). Other non-PEG 3350 crystallization solutions consist of PEG 2000 (14-19%), 100 mM Hepes, pH 8, 25 mM arginine; or 17% PEG 10000, 200 mM ammonium acetate, 100 mM bis-Tris, pH 5.5; or 30% PEG 2000 MME, 100 mM sodium acetate, 100 mM Mes, pH 6.5.
Crystals were briefly soaked in ethylene glycol and/or vitrified directly in liquid nitrogen for data collection.
X-ray diffraction data were collected from a synchrotron source at a wavelength, most frequently, of 0.976484 Å and recorded on CCD detector. […] The structure of the human TNF[…] (VC 2043) complexed with compound was solved by molecular replacement using Phaser with input model of 1TNF. […] Iterative manual model building using Coot (Emsley and Cowtan, 2004) and Refmac (Murshudov et al., 1997) continued until R and Rfree converged. […] The resolution of the structures was most frequently around 2.15 Å.
Root mean squared deviation (RMSD) calculations were carried out to ascertain the distance of each of the crystal structures of distorted TNFα trimer to a reference structure.
RMSD calculations were done using the program PyMOL (www.pymol.org). In this example version 1.7. was used. The cmd.rms PyMOL command was used with defined pairs of atoms. The atoms used were the backbone Ca's of certain residues within the β-strands of TNFα. The residue numbers used are shown below:
These residue numbers are those within the published structure of TNFα with PDB code 1A8M and within the distorted TNFα trimer structures of this invention. The residue numbers are also according to the sequence of SEQ ID NO:36. The residues in each of the three chains with the TNFα structures, (labelled A, B, and C according to our instructions) were used.
The command cmd.rms was used with the following arguments:
rms=cmd.rms(“(moving)”, “(target)”, matchmaker=4, quiet=0, cycles=0)
where “(moving)” is the selection of atoms in a given TNFα structure and “(target)” is the selection of equivalent atoms within the reference structure.
The RMSD was calculated for each structure against all others. The “representative structure” or “Reference Structure” was chosen to be the one with the lowest sum RMSD to all others—the structure “Compound 34” or “Compound34.pdb”.
Reference Structure (Compound 34) and Query Structure (Compound 64) were overlaid (see FIG. 17 with Reference Structure emboldened) by: • 1. […]

[2] = biological target: T2, Mouse TNFα (Mus musculus, UniProt P06804); assay: Monomer exchange mass spectrometry, compound pre-incubated with m-TNFα; assay type: binding; conditions: 1:1 complex mixed with h-TNFα
T2 construct: made in house
T2 sequence (P06804 80-235 limits assumed): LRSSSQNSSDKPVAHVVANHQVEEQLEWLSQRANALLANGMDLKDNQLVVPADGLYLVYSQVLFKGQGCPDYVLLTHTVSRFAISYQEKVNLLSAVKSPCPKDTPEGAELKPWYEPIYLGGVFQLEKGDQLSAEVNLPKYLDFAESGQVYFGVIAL
Method: The experiment was then repeated in reverse. Excess compound of formula 3 was incubated with Mouse TNFα, the excess compound of formula (3) was then removed. Mass Spectral analysis confirmed that a 1:1 complex had been formed between the compound of formula (3) and m-TNFα. Human TNFα was now added to this sample which was then subjected to mass spectral analysis over a number of hours. […] In addition there was evidence of formation of the ligated human homotrimer (H3L), the unligated mouse homotrimer (M3) and for unbound compound of formula (3) (L). […] Once this complex (M3L) has dissociated, monomer subunit exchange between the H3 and M3 species proceeds and the liberated ligand is then able to form complexes with all 4 trimer species present in solution.

[3] = biological target: TNFα (Homo sapiens, UniProt P01375); assay: Monomer exchange mass spectrometry, compound pre-incubated with h-TNFα; assay type: binding; parameters: made in house; conditions: 1:1 complex mixed with m-TNFα, 18 hours
Chain of TNFα (P01375 77-233 limits assumed): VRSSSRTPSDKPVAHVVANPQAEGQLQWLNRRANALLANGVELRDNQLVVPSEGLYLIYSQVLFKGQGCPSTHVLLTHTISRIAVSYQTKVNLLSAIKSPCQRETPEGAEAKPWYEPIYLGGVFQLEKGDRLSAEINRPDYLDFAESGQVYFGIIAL
Method: Human and mouse homotrimers of TNFα (H3 and M3 respectively) were incubated together and aliquots of the solution monitored by mass spectrometry appearance of the cross species heterotrimers. The mass spectrometric analysis confirmed that monomer exchange between native TNFα trimers was able to occur in solution. The exchange rate was slow and was monitored over a course of 4 hours before full equilibration was achieved (data not shown). The mechanism is unknown, although is it unlikely to involve formation of the dimeric forms as none of these were observed. Monomer exchange is likely to be occurring between pure human and mouse trimers, the mixing of mouse and human trimers simply makes this exchange visible by mass spectrometry.
In a second series of experiments an excess of the compound of formula (3) was incubated with Human TNFα, the excess compound of formula (3) was then removed. Mass Spectral analysis confirmed that a 1:1 complex had been formed between the compound of formula (3) and h-TNFα. Mouse TNFα was now added to this sample which was then subjected to mass spectral analysis over a number of hours. After 18 hours there was no observed change in the composition of the sample. […] In addition, there was no evidence of formation of the M3L species and no evidence of formation of the unligated H3 species. […]

SMILES | RMSD (Å) with Compound 34 [1] [Å] | off-rate when complexed with m-TNFα [2] | off-rate when complexed with h-TNFα [3]
Cc1ccc(C)c(Cn2c(C(O)c3ccncc3)nc3ccc(-c4cnn(C)c4)cc32)c1 (stereo not drawn) [Compound 15] | 0.24 | no measurable off-rate | no measurable off-rate
Cc1ccc(C)c(Cn2c(C(O)c3ccncc3)nc3ccccc32)c1 (stereo not drawn) [Compound 3] | 0.33 | measurable off-rate | no measurable off-rate
